Reference: paper PMC11269731, “Pannexin-1 channel inhibition alleviates opioid withdrawal in rodents by modulating locus coeruleus to spinal cord circuitry” (Nature Communications, 2024)

Molecular target: T1, Pannexin-1 (rPanx1) (Rattus norvegicus, UniProt P60570)
T1 construct: gene Panx1; Rattus norvegicus Pannexin-1 cDNA in pRK5 (pRK5-rPanx1)
Assay: whole-cell patch clamp of HEK-293T cells transfected with rat Panx1
Type: cell-based

T1 sequence (P60570 whole entry): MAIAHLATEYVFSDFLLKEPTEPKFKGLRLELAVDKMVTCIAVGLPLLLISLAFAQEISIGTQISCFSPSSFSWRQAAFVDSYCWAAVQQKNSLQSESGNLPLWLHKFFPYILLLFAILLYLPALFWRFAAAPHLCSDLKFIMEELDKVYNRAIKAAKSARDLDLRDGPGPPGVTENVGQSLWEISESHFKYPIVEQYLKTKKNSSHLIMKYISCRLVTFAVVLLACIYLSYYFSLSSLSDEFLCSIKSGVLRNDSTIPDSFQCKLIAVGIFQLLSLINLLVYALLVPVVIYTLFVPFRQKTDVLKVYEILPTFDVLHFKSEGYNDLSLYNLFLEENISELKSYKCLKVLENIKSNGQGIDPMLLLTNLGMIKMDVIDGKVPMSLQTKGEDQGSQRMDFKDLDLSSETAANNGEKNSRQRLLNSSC

| IC50 [µM] | SMILES |
| --- | --- |
| 74.6 | CCCN(CCC)S(=O)(=O)c1ccc(C(=O)O)cc1 [probenecid] |
| 0.054 | CCCN(CCC)S(=O)(=O)c1ccc(C(O)(C(F)(F)F)C(F)(F)F)cc1 [EG-2184, 4-(1,1,1,3,3,3-hexafluoro-2-hydroxypropan-2-yl)-N,N-dipropylbenzenesulfonamide] |
